# Assay results as given in patent US10758534B2 (Vertex Pharmaceuticals Incorporated, priority 2014, dated 2020).
# Target: T1, F508del (Homo sapiens, UniProt P13569, DEL508-508)
# T1 construct: expressed in transfected cells
# Assay: Protocol 2: FRET membrane potential optical assay (VIPR), identification of correction compounds
# Assay type: cell-based
# Conditions: F508del CFTR modulator activity; compounds of Table 1
# In short: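 Correction of the F508del trafficking defect is scored as forskolin (10 μM)/genistein (20 μM)-stimulated Cl^− efflux in NIH3T3 mouse fibroblasts after a 16 hr, 37° C. compound exposure. Depolarization was followed optically using voltage-sensing FRET dyes.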
# T1 sequence (P13569 with tags, fused parts or gaps DEL508-508): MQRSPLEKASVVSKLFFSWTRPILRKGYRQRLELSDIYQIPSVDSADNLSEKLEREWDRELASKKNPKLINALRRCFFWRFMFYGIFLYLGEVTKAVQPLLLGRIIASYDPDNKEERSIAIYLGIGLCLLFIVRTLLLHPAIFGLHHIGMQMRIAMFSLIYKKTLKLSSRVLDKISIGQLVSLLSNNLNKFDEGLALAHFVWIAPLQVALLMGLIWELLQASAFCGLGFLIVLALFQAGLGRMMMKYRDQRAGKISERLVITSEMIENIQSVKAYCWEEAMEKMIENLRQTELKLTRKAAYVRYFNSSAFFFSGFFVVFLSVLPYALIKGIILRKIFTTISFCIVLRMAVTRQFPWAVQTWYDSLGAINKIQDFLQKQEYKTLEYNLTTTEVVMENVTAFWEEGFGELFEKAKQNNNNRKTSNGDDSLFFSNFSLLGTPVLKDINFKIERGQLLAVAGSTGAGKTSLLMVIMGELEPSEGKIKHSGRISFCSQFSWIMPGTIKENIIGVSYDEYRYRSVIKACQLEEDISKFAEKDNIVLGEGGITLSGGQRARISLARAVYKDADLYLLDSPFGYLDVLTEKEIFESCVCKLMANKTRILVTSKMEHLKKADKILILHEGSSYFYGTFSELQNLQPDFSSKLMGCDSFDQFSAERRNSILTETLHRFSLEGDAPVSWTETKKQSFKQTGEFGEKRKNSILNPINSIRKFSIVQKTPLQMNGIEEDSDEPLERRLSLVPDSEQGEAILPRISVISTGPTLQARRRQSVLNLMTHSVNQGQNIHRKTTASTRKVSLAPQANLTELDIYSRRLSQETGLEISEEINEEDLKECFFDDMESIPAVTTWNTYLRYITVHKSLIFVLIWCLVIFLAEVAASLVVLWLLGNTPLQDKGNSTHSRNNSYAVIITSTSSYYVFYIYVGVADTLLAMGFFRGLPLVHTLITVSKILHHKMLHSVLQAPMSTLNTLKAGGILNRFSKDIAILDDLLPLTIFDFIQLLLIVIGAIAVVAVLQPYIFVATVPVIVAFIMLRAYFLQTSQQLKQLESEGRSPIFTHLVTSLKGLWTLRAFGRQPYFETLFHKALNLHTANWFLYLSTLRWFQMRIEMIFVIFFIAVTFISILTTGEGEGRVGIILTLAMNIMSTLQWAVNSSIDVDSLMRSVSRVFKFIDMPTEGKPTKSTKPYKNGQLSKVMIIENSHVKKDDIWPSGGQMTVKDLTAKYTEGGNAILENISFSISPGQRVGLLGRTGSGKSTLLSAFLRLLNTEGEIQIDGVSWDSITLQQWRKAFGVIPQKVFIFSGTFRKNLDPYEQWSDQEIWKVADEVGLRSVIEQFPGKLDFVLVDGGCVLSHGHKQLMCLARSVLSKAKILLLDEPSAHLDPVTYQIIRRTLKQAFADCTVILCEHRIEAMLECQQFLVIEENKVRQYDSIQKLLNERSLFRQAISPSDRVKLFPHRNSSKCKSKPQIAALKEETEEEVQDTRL
row,Compound,EC30
1,"CC(C)COc1cc(F)cc(-c2ccc(C(=O)NS(=O)(=O)c3cccc(N)n3)c(C3=CC(C)CC3(C)C)n2)c1 (single isomer, unassigned) [Compound 2081, N-[(6-amino-2-pyridyl)sulfonyl]-6-(3-fluoro-5-isobutoxy-phenyl)-2-(3,5,5-trimethylcyclopenten-1-yl)pyridine-3-carboxamide]",+++ (“+++” means <3 uM)

# Same assay, conditions: F508del CFTR modulator activity; compounds of Table 1; read-out: EC30
row,Compound,EC30 [µM]
1,"C[C@@H]1CN(c2nc(-c3cccc4[nH]ccc34)ccc2C(=O)NS(=O)(=O)c2ccc[nH]c2=O)C(C)(C)C1 [Compound 2636, 6-(1H-indol-4-yl)-N-[(2-oxo-1H-pyridin-3-yl)sulfonyl]-2-[(4S)-2,2,4-trimethylpyrrolidin-1-yl]pyridine-3-carboxamide]",> 10
2,"CCOc1ccc(F)c(-c2ccc(C(=O)NS(=O)(=O)c3cccnc3N)c(N3C[C@@H](C)CC3(C)C)n2)c1 [Compound 2149, N-[(2-amino-3-pyridyl)sulfonyl]-6-(5-ethoxy-2-fluoro-phenyl)-2-[(4S)-2,2,4-trimethylpyrrolidin-1-yl]pyridine-3-carboxamide]",< 3
3,"Cc1ccc(-c2ccc(C(=O)NS(=O)(=O)c3ccc[nH]c3=O)c(N3C[C@@H](C)CC3(C)C)n2)cc1C [Compound 2154, 6-(3,4-dimethylphenyl)-N-[(2-oxo-1H-pyridin-3-yl)sulfonyl]-2-[(4S)-2,2,4-trimethylpyrrolidin-1-yl]pyridine-3-carboxamide]",< 3
4,"CCCCN1CCCN(c2cccc(S(=O)(=O)NC(=O)c3cccnc3N3CC(C)CC3(C)C)n2)CC1 (stereo not drawn) [Compound 2620, N—[[6-(4-butyl-1,4-diazepan-1-yl)-2-pyridyl]sulfonyl]-2-(2,2,4-trimethylpyrrolidin-1-yl)pyridine-3-carboxamide]",3 to 10
5,"CC1CN(c2ncccc2C(=O)NS(=O)(=O)c2cccc(Oc3ccc(-n4ccnc4)cc3)n2)C(C)(C)C1 (stereo not drawn) [Compound 2441, N—[[6-(4-imidazol-1-ylphenoxy)-2-pyridyl]sulfonyl]-2-(2,2,4-trimethylpyrrolidin-1-yl)pyridine-3-carboxamide]",3 to 10
6,"C[C@@H]1CN(c2nc(-c3cncc4ccccc34)ccc2C(=O)NS(=O)(=O)c2cccnc2N)C(C)(C)C1 [Compound 2418, N-[(2-amino-3-pyridyl)sulfonyl]-6-(4-isoquinolyl)-2-[(4S)-2,2,4-trimethylpyrrolidin-1-yl]pyridine-3-carboxamide]",< 3
7,"CC(C)(C)c1ccc(C(=O)NS(=O)(=O)c2cccc(N)n2)c(N2CCC(C3CCOCC3)C2(C)C)n1 (single isomer, unassigned) [Compound 2266, N-[(6-amino-2-pyridyl)sulfonyl]-6-tert-butyl-2-(2,2-dimethyl-3-tetrahydropyran-4-yl-pyrrolidin-1-yl)pyridine-3-carboxamide]",< 3
8,"COc1ccc2nc(N3C[C@@H](C)CC3(C)C)c(C(=O)NS(=O)(=O)c3ccc[nH]c3=O)cc2c1 [Compound 2419, 6-methoxy-N-[(2-oxo-1H-pyridin-3-yl)sulfonyl]-2-[(4S)-2,2,4-trimethylpyrrolidin-1-yl]quinoline-3-carboxamide]",3 to 10
9,"C[C@@H]1CN(c2nc(-c3cccc(C(F)(F)F)c3)ccc2C(=O)NS(=O)(=O)c2cccc(N)n2)C(C)(C)C1 [Compound 2392, N-[(6-amino-2-pyridyl)sulfonyl]-6-[3-(trifluoromethyl)phenyl]-2-[(4S)-2,2,4-trimethylpyrrolidin-1-yl]pyridine-3-carboxamide]",< 3
10,"C[C@@H]1CN(c2nc(-c3ccccc3)ccc2C(=O)NS(=O)(=O)c2ccccc2)C(C)(C)C1 [Compound 2092, N-(benzenesulfonyl)-6-phenyl-2-[(4S)-2,2,4-trimethylpyrrolidin-1-yl]pyridine-3-carboxamide]",< 3
11,"C[C@@H]1CN(c2nc(C3=CCCN(C(=O)Cc4ccccc4)C3)ccc2C(=O)NS(=O)(=O)c2cccc(NC(=O)Cc3ccccc3)n2)C(C)(C)C1 [Compound 2243, N—[[6-[(2-phenylacetyl)amino]-2-pyridyl]sulfonyl]-6-[1-(2-phenylacetyl)-3,6-dihydro-2H-pyridin-5-yl]-2-[(4S)-2,2,4-trimethylpyrrolidin-1-yl]pyridine-3-carboxamide]",< 3
12,"CC(C)c1ccccc1-c1ccc(C(=O)NS(=O)(=O)c2ccc[nH]c2=O)c(N2C[C@@H](C)CC2(C)C)n1 [Compound 2635, 6-(2-isopropylphenyl)-N-[(2-oxo-1H-pyridin-3-yl)sulfonyl]-2-[(4S)-2,2,4-trimethylpyrrolidin-1-yl]pyridine-3-carboxamide]",< 3
13,"CC1CN(c2ncccc2C(=O)NS(=O)(=O)c2cccc(Nc3cccc(C(C)(C)C)c3)n2)C(C)(C)C1 (stereo not drawn) [Compound 2142, N—[[6-(3-tert-butylanilino)-2-pyridyl]sulfonyl]-2-(2,2,4-trimethylpyrrolidin-1-yl)pyridine-3-carboxamide]",< 3
14,C[C@@H]1CN(c2ncccc2C(=O)NS(=O)(=O)N2CCCC(NCc3ccc(OC(C)(C)C)cc3)C2)C(C)(C)C1 (stereo partly drawn) [Compound 2692],3 to 10
15,"CC1CN(c2ncccc2C(=O)NS(=O)(=O)c2cccc(NCCc3ccccc3Cl)n2)C(C)(C)C1 (stereo not drawn) [Compound 2632, N—[[6-[2-(2-chlorophenyl)ethylamino]-2-pyridyl]sulfonyl]-2-(2,2,4-trimethylpyrrolidin-1-yl)pyridine-3-carboxamide]",< 3
16,"Cc1ccc2cc(C(=O)NS(=O)(=O)c3cccc(N)n3)c(N3C[C@@H](C)CC3(C)C)nc2c1 [Compound 2519, N-[(6-amino-2-pyridyl)sulfonyl]-7-methyl-2-[(4S)-2,2,4-trimethylpyrrolidin-1-yl]quinoline-3-carboxamide]",< 3
17,"CC(C)OC(=O)Nc1cccc(S(=O)(=O)NC(=O)c2ccc(C3=CCCNC3)nc2N2C[C@@H](C)CC2(C)C)n1 [Compound 2624, isopropyl N—[6-[[6-(1,2,3,6-tetrahydropyridin-5-yl)-2-[(4S)-2,2,4-trimethylpyrrolidin-1-yl]pyridine-3-carbonyl]sulfamoyl]-2-pyridyl]carbamate]",3 to 10

# Same assay, conditions: Table 3; compounds of Table 1 as modulators of CFTR activity; protocol not stated
row,Compound,EC30
1,"CC1CN(c2nc(-c3ccc(C(C)C)cc3)ccc2C(=O)NS(=O)(=O)c2cccc(N)n2)C(C)(C)C1 (stereo not drawn) [Compound 693, N-[(6-amino-2-pyridyl)sulfonyl]-6-(4-isopropylphenyl)-2-(2,2,4-trimethylpyrrolidin-1-yl)pyridine-3-carboxamide]",+++ (“+++” means <3 uM)
2,"Cc1cccc(C)c1Cn1nc(-c2cccc(Cl)c2)cc1C(=O)NS(=O)(=O)c1ccccc1 [Compound 83, N-(benzenesulfonyl)-5-(3-chlorophenyl)-2-[(2,6-dimethylphenyl)methyl]pyrazole-3-carboxamide]",+++ (“+++” means <3 uM)
3,"CC(C)COc1ccc(-c2ccc(C(=O)NS(=O)(=O)c3cccc(N)n3)c(N3CC(C)CC3(C)C)n2)cn1 (stereo not drawn) [Compound 471, N-[(6-amino-2-pyridyl)sulfonyl]-6-(6-isobutoxy-3-pyridyl)-2-(2,2,4-trimethylpyrrolidin-1-yl)pyridine-3-carboxamide]",+++ (“+++” means <3 uM)
4,"CC1CN(c2nc(-c3ccc(Cl)c(OC(C)C)c3)ccc2C(=O)NS(=O)(=O)c2cccc(N)n2)C(C)(C)C1 (stereo not drawn) [Compound 504, N-[(6-amino-2-pyridyl)sulfonyl]-6-(4-chloro-3-isopropoxy-phenyl)-2-(2,2,4-trimethylpyrrolidin-1-yl)pyridine-3-carboxamide]",+++ (“+++” means <3 uM)
5,"COc1c(F)cc(Cl)cc1-c1cc(C(=O)NS(=O)(=O)c2ccccc2)n(Cc2c(C)cccc2C)n1 [Compound 379, N-(benzenesulfonyl)-5-(5-chloro-3-fluoro-2-methoxy-phenyl)-2-[(2,6-dimethylphenyl)methyl]pyrazole-3-carboxamide]",+++ (“+++” means <3 uM)
6,"Cc1cc(C)c(Oc2nc(C(C)(C)C)ccc2C(=O)NS(=O)(=O)c2ccn[nH]2)c(C)c1 [Compound 214, 6-tert-butyl-N-(1H-pyrazol-5-ylsulfonyl)-2-(2,4,6-trimethylphenoxy)pyridine-3-carboxamide]",+++ (“+++” means <3 uM)
7,"Cc1cc(C)c(Oc2nc(C(C)(C)C)ccc2C(=O)NS(=O)(=O)c2cccc(N(C)C)n2)c(C)c1 [Compound 468, 6-tert-butyl-N-[[6-(dimethylamino)-2-pyridyl]sulfonyl]-2-(2,4,6-trimethylphenoxy)pyridine-3-carboxamide]",+++ (“+++” means <3 uM)
8,"Cc1cc(C)c(CN2CC(C)(C)c3ccccc3C2C(=O)NS(=O)(=O)c2cccc(N)n2)c(C)c1 (stereo not drawn) [Compound 140, N-[(6-amino-2-pyridyl)sulfonyl]-4,4-dimethyl-2-[(2,4,6-trimethylphenyl)methyl]-1,3-dihydroisoquinoline-1-carboxamide]",+++ (“+++” means <3 uM)
9,"Cc1cc(C)c(Oc2nc(Cc3ccccc3)ccc2C(=O)NS(=O)(=O)c2cccc(N)n2)c(C)c1 [Compound 1, N-[(6-amino-2-pyridyl)sulfonyl]-6-benzyl-2-(2,4,6-trimethylphenoxy)pyridine-3-carboxamide]",+++ (“+++” means <3 uM)
10,"COc1cccc(-c2ccc(C(=O)NS(=O)(=O)c3ccc[nH]c3=O)c(N3[C@H](C)CC[C@@H]3C)n2)n1 [Compound 781, 2-[(2S,5R)-2,5-dimethylpyrrolidin-1-yl]-6-(6-methoxy-2-pyridyl)-N-[(2-oxo-1H-pyridin-3-yl)sulfonyl]pyridine-3-carboxamide]",+ (“+” means greater than 10 uM)
11,"Cc1cccc(C)c1Cn1c(C(=O)NS(=O)(=O)c2ccccc2)cc2ccccc21 [Compound 2, N-(benzenesulfonyl)-1-[(2,6-dimethylphenyl)methyl]indole-2-carboxamide]",+++ (“+++” means <3 uM)
12,"Cc1cc(C)c(Oc2cc(C(C)(C)C)ccc2C(=O)NS(=O)(=O)c2cccc(N)c2)c(C)c1 [Compound 224, N-(3-aminophenyl)sulfonyl-4-tert-butyl-2-(2,4,6-trimethylphenoxy)benzamide]",+++ (“+++” means <3 uM)
